From patent US20180237751A1, “METHOD FOR GENERATING BETA CELLS” (THE TRUSTEES OF COLUMBIA UNIVERSITY IN THE CITY OF NEW YORK, priority 2011, published 2018)

How the values were obtained:
Format in all cases: cell-based, human
[1] = test system: GCK mutant iPS-derived beta-like cells; test: Insulin (C-peptide) secretion assay in vitro, GCK mutant beta-like cells; settings: 1 hour, identical to control cells
Protocol: Typically, cells were cultured in 12-well dishes. After 12 days of differentiation, cells were washed for 1 hour in CMRL medium. Cells were then incubated in 300 μl CMRL medium containing 5.6 mM glucose for 1 hour and the medium was collected. Subsequently, 300 μl CMRL medium containing 16.9 mM glucose or other secretagogues was used to treat cells for 1 hour, following which the medium was collected. For in vivo tests, mice were deprived of food overnight with ad libitium access to water. After 12-14 hours of fasting, capillary blood glucose concentrations were determined by tail vein bleed using an AlphaTRACK glucometer (Abbott). Venous blood samples were collected via the submandibular vein. Intraperitoneal glucose was then administered (1 mg/g body weight) and ½ hour later blood samples were obtained via the submandibular vein. Blood samples were kept at room temperature for 2 hours and serum was obtained by centrifuging blood samples at 4000 rpm for 15 min. C-peptide concentrations in medium or mouse serum were measure using an ultrasensitive human C-peptide ELISA kit according to manufacturer's instructions (Mercodia). […]
Typically, cells were cultured in 12-well dishes. […] After 12-14 hours of fasting, capillary blood glucose concentrations were determined by tail bleed using an AlphaTRACK glucometer (Abbott). […]

Wolfram iPS cells = test: Unfolded protein response (UPR) analysis, Wolfram iPS cells and fibroblasts
Protocol: (§1) Wolfram and control iPSCs or fibroblasts were incubated with indicated dosages of thapsigargin (TG) or tunicamycin (TM) (Both were from Sigma) for 6 hours after an overnight starvation. 1 mM Sodium 4-phenylbutyrate (4PBA) (EMD Chemicals Inc.) was administrated one hour prior to and through TG or TM treatment. Cells were harvested and subjected to RNA and protein analysis. In vitro differentiated beta cells were treated with 10 nM TG for 12 hours, or 0.5 μg/ml TM for 6 hours with or without 1 mM 4PBA treatment one hour prior to and through TG or TM treatment. For long-term 4PBA treatment, cells were incubated with 1 mM 4PBA starting on day 9 of differentiation, when cells reached pancreatic endoderm stage, and maintained until day 15. Then cells were subjected to insulin secretion, RNA and protein analysis. RNA was isolated using RNAeasy plus kit (Qiagen). cDNA was generated by using RT kit (Promega). Primers for PCR analysis were as follows: XBP-1 for gel-imaging (Lee, Won et al.) forward 5′ […] 3′ (SEQ ID NO:1), reverse 5′ […] 3′ (SEQ ID NO:2); sXBP-1 for QPCR (Merquiol, Uzi et al. 2011) forward 5′ CTGAGTCCGCAGCAGGTG 3′(SEQ ID NO:3), reverse 5′ […] 3′ (SEQ ID NO:4); GRP78 forward 5′ […] 3′(SEQ ID NO:5), reverse 5′ […] 3′ (SEQ ID NO:6); Insulin forward 5′ […] 3′(SEQ ID NO:7), reverse 5′ CAATGCCACGCTTCTGC 3′(SEQ ID NO:8). GRP78 protein level was determined by western blot using mouse-anti GRP78 antibody (Santa Cruz, sc-166490).

control iPS cells = test: Unfolded protein response (UPR) analysis, control iPS cells; settings: 10 nM TG, 6 hour
Protocol: as §1, with “3′(SEQ ID NO:7), reverse 5′ CAATGCCACGCTTCTGC 3′(SEQ ID NO:8).” left out

Wolfram beta cells [2] = test: UPR, insulin and proinsulin content and ER morphology in Wolfram beta cells
Protocol: (§2) Human ES or iPS cells were dissociated by Dispase (3-5 mins) and Accutase (5 mins, Sigma). Cells were suspended in human ES medium containing 10 μM Y27632, a ROCK inhibitor, and filtered through a 70 μm cell strainer. Then cells were seeded at a density of 800,000 cells/well in 12-well plates. After 1 or 2 days, when cells reached 80-90% confluence, differentiation was started. On Day 1: cells were briefly washed once with RPMI medium, then were treated with Activin A (100 ng/ml), Wnt3A (25 ng/ml) and 0.075 mM EGTA in RPMI medium. On day 2-3: cells were treated with Activin A (100 ng/ml) and 0.2% FBS in RPMI medium. On day 4-5: cells were treated with FGF10 (50 ng/ml), KAAD-cyclopamine (0.25 μM) and 2% FBS in RPMI medium. On day 6-8: cells were treated with FGF10 (50 ng/ml), KAAD-cyclopamine ([…] (2 μM) and LDN-193189 (250 nM), B27 in DMEM medium. On day 9-10: cells were treated with exendin-4 (50 ng/ml), SB431542 (2 μM) and B27 in CMRL medium. On day 11-12, cells were treated with T4 (thyroid hormone, 0.02 nM) and B27 in CMRL medium. After day 12, cells were incubated in CMRL medium with B27. Cells were analyzed between day 14 and day 16.
as §1
(§3) To determine Insulin or proinsulin content within the cell, differentiated cells were collected and lysed by M-PER protein extraction reagent (Thermo Scientific). Proinsulin and insulin contents were measured by using human proinsulin and insulin ELISA kits (Mercodia). Quantification of positively stained cells was analyzed using Celigo Cytometer system (Cyntellect), and flow cytometry analysis. To normalize insulin content to beta cell number, cultures were dissociated to single cells, and divided into three fractions: 20% of cells for cell number quantification, 40% for RNA analysis and 40% for ELISA assay to determine insulin content.
Differentiated beta cells were treated with or without 10 nM TG for 12 hours, and then fixed in 2.5% glutaraldehyde in 0.1 M Sorenson's buffer (pH 7.2) for one hour. Samples were processed and imaged by Dignostic Service, Department of Pathology and Cell Biology, Columbia University. Secretory granule structure and endoplasmic reticulum (ER) morphology were visually recognized. The number of granules was determined using ImageJ software.

control beta cells [3] = test: UPR, insulin and proinsulin content and ER morphology in control beta cells
Protocol: as §2
Wolfram and control iPSCs or fibroblasts were incubated with indicated dosages of thapsigargin (TG) or tunicamycin (TM) (Both were from Sigma) for 6 hours after an overnight starvation. 1 mM Sodium 4-phenylbutyrate (4PBA) (EMD Chemicals Inc.) was administrated one hour prior to and through TG or TM treatment. Cells were harvested and subjected to RNA and protein analysis. In vitro differentiated beta cells were treated with 10 nM TG for 12 hours, or 0.5 μg/ml TM for 6 hours with or without 1 mM 4PBA treatment one hour prior to and through TG or TM treatment. […] GRP78 protein level was determined by western blot using mouse-anti GRP78 antibody (Santa Cruz, sc-166490).
as §3
Differentiated beta cells were treated with or without 10 nM TG for 12 hours, and then fixed in 2.5% glutaraldehyde in 0.1 M Sorenson's buffer (pH 7.2) for one hour. […] The number of granules was determined using ImageJ software.

Wolfram beta cells [4] = test: In vitro insulin and glucagon secretion assay, Wolfram beta cells
Protocol: as §1
(§4) Cells were cultured in 12-well dishes. After 14 days of differentiation, cells were washed for 1 hour in CMRL medium, then incubated in 300 μl CMRL medium containing 5.6 mM glucose for 1 hour and the medium was collected. After that, 300 μl CMRL medium containing 16.9 mM glucose, or 15 mM arginine, or 30 mM potassium, or 1 mM DBcAMP+16.9 mM glucose was used to treat cells for 1 hour and then the medium was collected. Human C-peptide concentration in the medium was measured by ultra-sensitive human C-peptide ELISA kit according to manufacturer's instructions (Mercodia). Glucagon levels in medium were measured by using Glucagon ELISA kit (ALPCO Diagnostics).

control beta cells [5] = test: In vitro insulin and glucagon secretion assay, control beta cells
Protocol: as §1, §4

[6] = Wolfram beta cells, TG 10 nM, 12 hours
[7] = control cells, arginine stimulation, TG treatment

`COC(=O)C1=C(C)NC(C)=C([N+](=O)[O-])C1c1ccccc1C(F)(F)F` (stereo not drawn) [Bay K8644] was tested. Which “increase in C-peptide release” value ([1]; GCK^G299R/+ and GCK^G299R/hygro cells) did it give?
Its value is 3-5 fold.

And the “increase in C-peptide release” value ([1]; GCK^G299R/+ cells)?
The value was 5 fold.

Which “increase of GRP78 mRNA” value (Wolfram iPS cells; Wolfram cells, 10 nM TG, 6 hour) does the source give for `C/C=C(/C)C(=O)O[C@H]1C(C)=C2[C@H]([C@@H]1OC(=O)CCCCCCC)[C@@](C)(OC(C)=O)C[C@H](OC(=O)CCC)[C@@]1(O)[C@H]2OC(=O)[C@@]1(C)O` [TG, thapsigargin] here?
The value was 4 fold.

What about the “GRP78 mRNA level” value (Wolfram iPS cells; stem cells, increasing concentration of TG, 6 hours) of the same molecule?
The value was “dose-dependent increase”.

What about the “increase of GRP78 mRNA” value (control iPS cells) of the same molecule?
Its value is 2 fold.

What about the “proinsulin to insulin ratio” value (Wolfram beta cells [2]; Wolfram beta cells challenged with TG, ~0.55 without TG) of the same molecule?
Its value is 0.73.

What about the “ER morphology (TEM)” value (Wolfram beta cells [2]; Wolfram beta cells, 12 hours of 10 nM TG) of the same molecule?
Its value is “greatly dilated”.

And the “reduction of insulin production at the mRNA level” value (Wolfram beta cells [2]; [6])?
The value was 46%.

And the “reduction of insulin production at the protein level” value (Wolfram beta cells [2]; [6])?
Its value is 31%.

What about the “proinsulin to insulin ratio” value (control beta cells [3]; control beta cells challenged with TG, ~0.47 without TG) of the same molecule?
The value was 0.51.

And the “ER morphology (TEM)” value (control beta cells [3]; control cells, 12 hours of 10 nM TG)?
Its value is “remained unaffected”.

What about the production of insulin (control beta cells [3]; control cells, TG 10 nM, 12 hours) of the same molecule?
Its production of insulin is “unaffected”.

And the “insulin secretion in response to 16.9 mM glucose” value (Wolfram beta cells [4]; TG treated Wolfram cells (10 nM, 12 hour))?
Its value is “failed to increase insulin secretion”.

And the “reduction of stimulated glucagon secretion” value (Wolfram beta cells [4]; WFS1 cells, arginine stimulation, TG treatment)?
Its value is 24%.

What about the “reduction of stimulated insulin secretion” value (Wolfram beta cells [4]; WFS1 mutant cells, arginine stimulation, TG treatment) of the same molecule?
Its value is 43%.

And the “response to DBcAMP (C-peptide secretion)” value (Wolfram beta cells [4]; Wolfram beta cells treated with TG, 2.6 without TG)?
Its value is 1.2 fold.

And the “insulin-secretion in response to potassium” value (Wolfram beta cells [4]; Wolfram beta cells treated with TG, 3.9 without TG)?
The value was 2.2 fold.

What about the “fold increase of C-peptide in the medium in response to arginine” value (Wolfram beta cells [4]; Wolfram beta cells treated with TG, 4.0 without TG) of the same molecule?
Its value is 2.3 fold.

And the “increase of insulin output in response to 16.9 mM glucose” value (control beta cells [5]; TG treated control beta cells (10 nM, 12 hour))?
The value was 1.6 fold.

What about the “reduction of stimulated glucagon secretion” value (control beta cells [5]; [7]) of the same molecule?
The value was 28%.

What about the “reduction of stimulated insulin secretion” value (control beta cells [5]; [7]) of the same molecule?
Its value is −3%.
